pIC50: −log10 of the molar value.
What was measured:
MRC-5 = test: Cytostatic/cytotoxic MTT assay, MRC-5 fibroblasts; type: cell-based; settings: Homo sapiens, MRC5; non-malignant fibroblasts, 72 h; read-out: MTT, IC50 MRC-5
Description: (§1) Unless otherwise stated, all cells were purchased from the […] (ATCC). The CCRF-CEM line is derived from T lymphoblastic leukemia, evincing high chemosenzitivity, K562 represent cells from a […] patient sample with bcr-abl translocation, HCT116 is colorectal tumor cell line and its p53 gene knock-down counterpart (HCT116p53−/−, Horizon Discovery, UK) is a model of human cancers with p53 inactivation frequently associated with poor prognosis, A549 cell line is lung adenocarcinoma. The daunorubicin resistant subline of CCRF-CEM cells (CEM-DNR bulk) and paclitaxel resistant subline K562-TAX were selected in our laboratory by cultivation of maternal cell lines in increasing concentrations of daunorubicine or paclitaxel, respectively. The CEM-DNR cells overexpress mrp-1 and mdr-1 genes, while K562-TAX cells overexpress mdr-1 only. Both proteins belong to the family of ABC transporters and are involved in the primary and/or acquired multidrug resistance phenomenon (ref.: Gottesman, M. M.; Fojo, T.; Bates, S. E. Multidrug resistance in cancer: role of ATP-dependent transporters. Nat. Rev. Cancer. 2002, 2, 48-58. (b) Noskova, V.; Dzubak, P.; Kuzmina, G.; Ludkova, A.; Stehlik, D.; Trojanec, R.; Janostakova, A.; Korinkova, G.; Mihal, V.; Hajduch, M. In vitro chemoresistance profile and expression/function of MDR associated proteins in resistant cell lines derived from CCRF-CEM, K562, A549 and MDA MB 231 parental cells. Neoplasma 2002, 49, 418-425). Non-malignant MRC-5 and BJ cells, derived from normal human fibroblasts, were used as controls. The cells were maintained in Nunc/Corning 80 cm^2 plastic tissue culture flasks and cultured in cell culture medium (DMEM/RPMI 1640 with 5 g/L glucose, 2 mM glutamine, 100 U/mL penicillin, 100 µg/mL streptomycin, 10% fetal calf serum, and NaHCO3). Cell suspensions were prepared and diluted according to the particular cell type and the expected target cell density (25,000-30,000 cells/well based on cell growth characteristics). Cells were added by pipette (80 L) into 96-well microtiter plates. Inoculates were allowed a pre-incubation period of 24 h at 37° C. and 5% CO2 for stabilization. Four-fold dilutions, in 20-L aliquots, of the intended test concentration were added to the microtiter plate walls at time zero. All test compound concentrations were examined in duplicate. Incubation of the cells with the test compounds lasted for 72 h at 37° C., in a 5% CO2 atmosphere at 100% humidity. At the end of the incubation period, the cells were assayed using MTT. Aliquots (10 L) of the MTT stock solution (5 mg/ml) were pipetted into each well and incubated for another 1-4 h. After this incubation period the formazan produced was dissolved by addition of 100 µL/well of 10% aq SDS (pH 5.5), followed by a further incubation at 37° C. overnight. The optical density was measured at 540 nm. The IC50 value, the drug concentration inhibiting the cell growth by 50%, was calculated from appropriate dose-response curves.
(§2) In vitro cytotoxic/cytostatic activity final nucleosides 1-5 was initially evaluated against […] cell lines derived from human solid tumors including lung (A549 cells) and colon (HCT116 and HCT116p53−/−) carcinomas, as well as leukemia cell lines (CCRF-CEM, CEM-DNR, K562 and K562-TAX) and, for comparison, non-malignant BJ and MRC-5 fibroblasts. Concentrations inhibiting the cell growth by 50% (IC50) were determined using a quantitative metabolic staining with 3-(4,5-dimethylthiazol-2-yl)-2,5-diphenyltetrazolium bromide (MTT) (ref.: Denizot, F.; Lang, R. Rapid colorimetric assay for cell growth and survival: Modifications to the tetrazolium dye procedure giving improved sensitivity and reliability. J. Immunol. Meth. 1986, 89, 271-277) following a 3-day treatment.

CCRF-CEM = test: Cytostatic/cytotoxic MTT assay, CCRF-CEM; type: cell-based; settings: Homo sapiens, 72 h incubation, read-out: MTT, IC50 CCRF-CEM
Description: as §1, §2

HeLa S3 = test: XTT cytotoxicity assay, HeLa S3; type: cell-based; settings: Homo sapiens, HeLa S3; 72 h incubation; read-out: XTT, IC50 HeLa S3
Method: (§3) HL-60, Hela S3 and HepG2 cell lines (ATCC) were grown in RPMI-1640 or DMEM medium supplemented with 10% fetal calf serum, […] of streptomycin, 200 U/mL of penicillin G and 4 mM glutamine in a humidified atmosphere containing 5% CO2 at 37° C. Sensitivity of these cell lines to the synthesized compounds was assessed with the use of XTT cell proliferation kit II (Roche Diagnostics GmbH, Mannheim, Germany) according to the manufacturer's instructions. Briefly, cells were seeded in a 96-well plate at a density of 10,000 cells per well (90 μL). After 24 h, 10 μL of the tested compounds were added to the culture media at desired concentration range and incubated for 72 h. After that 50 μL of the XTT solution was added (1 mg/mL XTT+0.383 mg/mL N-methyl dibenzopyrazine methyl sulfate). The absorbance was recorded at 495 nm following a 2 h-incubation with the dye. IC50 values were determined by non-linear regression method using GraphPad Prism version 5.00 for Windows (GraphPad Software, La Jolla, Calif., USA).
(§4) In addition, the anti-proliferative effect was tested against a human T-lymphoblastic leukemia line CCRF-CEM, promyelocytic leukemia HL-60 and cervical carcinoma HeLa S3 growing in liquid suspension. Cell viability was determined following a 3-day incubation using 2,3-bis-(2-methoxy-4-nitro-5-sulfophenyl)-2H-tetrazolium-5-carboxanilide (XTT) assay (ref.: Scudiero, D. A.; Shoemaker, R. H.; Paull, K. D.; Monks, A.; Tierney, S.; Nofziger, T. H.; Currens, M. J.; Seniff, D.; Boyd M. R. Evaluation of a Soluble Tetrazolium/Formazan Assay for Cell Growth and Drug Sensitivity in Culture Using Human and Other Tumor Cell Lines. Cancer Res. 1988, 48, 4827-4833).

HCT116p53-/- = test: Cytostatic/cytotoxic MTT assay, HCT116p53-/-; type: cell-based; settings: Homo sapiens, HCT-116; 72 h incubation; read-out: MTT, IC50 HCT116 p53-/-
Description: as §1, §2
(§5) Multidrug resistance is a major therapeutic problem in cancer chemotherapy. […]

CEM-DNR-bulk = test: Cytostatic/cytotoxic MTT assay, CEM-DNR-bulk; type: cell-based; settings: Homo sapiens; daunorubicin resistant subline, 72 h; read-out: MTT, IC50 CEM-DNR-bulk
Description: as §1, §2, §5

BJ = test: Cytostatic/cytotoxic MTT assay, BJ fibroblasts; type: cell-based; settings: Homo sapiens, non-malignant fibroblasts, 72 h, read-out: MTT, IC50 BJ
Description: as §1, §2

A549 = test: Cytostatic/cytotoxic MTT assay, A549; type: cell-based; settings: Homo sapiens, A549; 72 h incubation; read-out: MTT, IC50 A549
Description: as §1, §2

K562 = test: Cytostatic/cytotoxic MTT assay, K562; type: cell-based; settings: Homo sapiens, K562; 72 h incubation; read-out: MTT, IC50 K562
Description: as §1, §2

K562-TAX = test: Cytostatic/cytotoxic MTT assay, K562-TAX; type: cell-based; settings: Homo sapiens, paclitaxel resistant subline, 72 h, read-out: MTT, IC50 K562-TAX
Description: as §1, §2, §5

HL60 = test: XTT cytotoxicity assay, HL-60; type: cell-based; settings: Homo sapiens, HL-60; 72 h incubation; read-out: XTT, IC50 HL60
Method: as §3, §4

HCT116 = test: Cytostatic/cytotoxic MTT assay, HCT116; type: cell-based; settings: Homo sapiens, HCT-116; 72 h incubation; read-out: MTT, IC50 HCT116
Description: as §1, §2, §5

HepG2 = test: XTT cytotoxicity assay, HepG2; type: cell-based; settings: Homo sapiens, HepG2; 72 h incubation; read-out: XTT, IC50 HepG2
Method: as §3

| melting point | SMILES | pIC50 (MRC-5) | pIC50 (CCRF-CEM) | pIC50 (HeLa S3) | pIC50 (HCT116p53-/-) | pIC50 (CEM-DNR-bulk) | pIC50 (BJ) | pIC50 (A549) | pIC50 (K562) | pIC50 (K562-TAX) | pIC50 (HL60) | pIC50 (HCT116) | pIC50 (HepG2) |
| --- | --- | --- | --- | --- | --- | --- | --- | --- | --- | --- | --- | --- | --- |
| 188 to 189 °C | Cc1ncnc2c1c(Br)cn2[C@@H]1O[C@H](CO)[C@@H](O)[C@H]1O [Compound 5i, 5-Bromo-4-methyl-7-(β-D-ribofuranosyl)-7H-pyrrolo[2,3-d]pyrimidine] | 4.61 | 4.82 | 4.86 | 4.71 | < 4.70 | < 4.00 | < 4.70 | < 4.70 | 4.80 | 5.14 | 4.80 | 5.26 |
| – | CNc1ncnc2c1c(I)cn2[C@@H]1O[C@H](CO)[C@@H](O)[C@H]1O [Compound 3h, 5-Iodo-4-methylamino-7-(β-D-ribofuranosyl)-7H-pyrrolo[2,3-d]pyrimidine] | < 4.00 | < 4.00 | < 4.70 | < 4.00 | < 4.70 | < 4.00 | < 4.00 | < 4.00 | < 4.70 | < 4.70 | < 4.00 | < 4.70 |
| – | Cc1ncnc2c1c(I)cn2[C@@H]1O[C@H](CO)[C@@H](O)[C@H]1O [Compound 5h, 5-Iodo-4-methyl-7-(β-D-ribofuranosyl)-7H-pyrrolo[2,3-d]pyrimidine] | 4.88 | 5.26 | 5.39 | 5.12 | 4.90 | < 4.00 | 4.91 | 4.75 | < 4.70 | 5.58 | 5.33 | 5.46 |

— patent US9586986B2, “Substituted 7-deazapurine ribonucleosides for therapeutic uses” (Institute of Organic Chemistry and Biochemistry ASCR, v.v.i., priority 2014, dated 2017)
